Test results published in patent US10597388B2, “Pyridazinone herbicides” (FMC CORPORATION, priority 2014, dated 2020).

Columns and labels:
Assay in all cases: Test D controlled growth environment herbicide test, pre- and postemergence
Type in all cases: in vivo
[1] = system: ryegrass, Italian (Italian ryegrass, Lolium multiflorum)
Method in brief: (§1)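 Pre-emergence: seeds sown in silt loam soil were sprayed with compound in a non-phytotoxic solvent mix containing surfactant. Post-emergence: plants at 2 to 18 cm (1- to 4-leaf stage) in peat moss/vermiculite medium got the same formulation. Visual 0–100 rating versus controls after 14 to 21 d.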

[2] = system: wheat, winter (winter wheat, Triticum aestivum)
Method in brief: as §1

[3] = system: barley, winter (winter barley, Hordeum vulgare)
Method in brief: as §1

[4] = system: pigweed (Amaranthus retroflexus)
Method in brief: as §1

[5] = system: lambsquarters (Chenopodium album)
Method in brief: as §1

[6] = system: windgrass (Apera spica-venti)
Method in brief: as §1

[7] = system: galium (catchweed bedstraw, Galium aparine)
Method in brief: as §1

[8] = system: foxtail, green (green foxtail, Setaria viridis)
Method in brief: as §1

[9] = system: deadnettle (henbit deadnettle, Lamium amplexicaule)
Method in brief: as §1

kochia (Kochia scoparia) = system: kochia (Kochia scoparia)
Method in brief: as §1

[10] = system: speedwell (bird's-eye speedwell, Veronica persica)
Method in brief: as §1

[11] = system: chickweed (common chickweed, Stellaria media)
Method in brief: as §1

[12] = system: blackgrass (Alopecurus myosuroides)
Method in brief: as §1

[13] = Postemergence, 31 g ai/ha, scale 0 to 100 (0 no effect, 100 complete control)
[14] = Postemergence, 125 g ai/ha, visual rating on scale 0 (no effect) to 100 (complete control), 14 to 21 d
[15] = Postemergence, 250 g ai/ha, scale 0 to 100 (0 no effect, 100 complete control)
[16] = Preemergence, 125 g ai/ha, scale 0 to 100 (0 no effect, 100 complete control)
[17] = Preemergence, 250 g ai/ha, scale 0 to 100 (0 no effect, 100 complete control)
[18] = postemergence, 62 g ai/ha, scale 0 to 100, 0 no effect, 100 complete control
[19] = Preemergence, 62 g ai/ha, scale 0 to 100 (0 no effect, 100 complete control)

In the case of `C#CCOC(=O)Oc1c(C)nn(C)c(=O)c1-c1c(C)sc2ccc(C)cc12` [Compound 87], the “Ryegrass, Italian plant response rating” value [1, 13] was 90, the “Plant response rating, Ryegrass, Italian” value [1, 14] was 95 and the “Plant response rating, Ryegrass, Italian” value [1, 15] was 98. For the same compound, the “Plant response rating (scale of 0 to 100), Ryegrass, Italian” value ([1]; Preemergence, 31 g ai/ha) was 90, the “Plant response rating (scale of 0 to 100), Ryegrass, Italian” value ([1]; Preemergence, 62 g ai/ha) was 95 and the “Plant response rating, Ryegrass, Italian” value [1, 16] was 98. For the same compound, the “Plant response rating, Ryegrass, Italian” value [1, 17] was 98, the “Plant response rating, Ryegrass, Italian” value [1, 18] was 95 and the “Wheat, Winter plant response rating” value [2, 13] was 0. The “Plant response rating, Wheat, Winter” value [2, 14] was 0, the “Plant response rating, Wheat, Winter” value [2, 15] was 5 and the “Plant response rating (scale of 0 to 100), Wheat, Winter” value ([2]; Preemergence, 31 g ai/ha) was 0. For the same compound, the “Plant response rating (scale of 0 to 100), Wheat, Winter” value ([2]; Preemergence, 62 g ai/ha) was 0, the “Plant response rating, Wheat, Winter” value [2, 16] was 0 and the “Plant response rating, Wheat, Winter” value [2, 17] was 15. For the same compound, the “Plant response rating, Wheat, Winter” value [2, 18] was 0, the “Barley, Winter plant response rating” value [3, 13] was 0 and the “Plant response rating, Barley, Winter” value [3, 14] was 5. The “Plant response rating, Barley, Winter” value [3, 15] was 5, the “Plant response rating (scale of 0 to 100), Barley, Winter” value ([3]; Preemergence, 31 g ai/ha) was 0 and the “Plant response rating, Barley, Winter” value [3, 19] was 0. For the same compound, the “Plant response rating, Barley, Winter” value [3, 16] was 10, the “Plant response rating, Barley, Winter” value [3, 17] was 25 and the “Plant response rating, Barley, Winter” value [3, 18] was 0. For the same compound, the “Pigweed plant response rating” value [4, 13] was 95, the “Plant response rating, Pigweed” value [4, 14] was 100 and the “Plant response rating, Pigweed” value [4, 15] was 100. For the same compound, the “Plant response rating (scale of 0 to 100), Pigweed” value ([4]; Preemergence, 31 g ai/ha) was 50, the “Plant response rating (scale of 0 to 100), Pigweed” value ([4]; Preemergence, 62 g ai/ha) was 100 and the “Plant response rating, Pigweed” value [4, 16] was 100. For the same compound, the “Plant response rating, Pigweed” value [4, 17] was 100, the “Plant response rating, Pigweed” value [4, 18] was 100 and the “Lambsquarters plant response rating” value [5, 13] was 95. For the same compound, the “Plant response rating, Lambsquarters” value [5, 14] was 100, the “Plant response rating, Lambsquarters” value [5, 15] was 100 and the “Plant response rating (scale of 0 to 100), Lambsquarters” value ([5]; Preemergence, 31 g ai/ha) was 70. For the same compound, the “Plant response rating (scale of 0 to 100), Lambsquarters” value ([5]; Preemergence, 62 g ai/ha) was 100, the “Plant response rating, Lambsquarters” value [5, 16] was 100 and the “Plant response rating, Lambsquarters” value [5, 17] was 100. The “Plant response rating, Lambsquarters” value [5, 18] was 100, the “Windgrass plant response rating” value [6, 13] was 80 and the “Plant response rating, Windgrass” value [6, 14] was 85. For the same compound, the “Plant response rating, Windgrass” value [6, 15] was 100, the “Plant response rating (scale of 0 to 100), Windgrass” value ([6]; Preemergence, 31 g ai/ha) was 80 and the “Plant response rating (scale of 0 to 100), Windgrass” value ([6]; Preemergence, 62 g ai/ha) was 80. For the same compound, the “Plant response rating, Windgrass” value [6, 16] was 85, the “Plant response rating, Windgrass” value [6, 17] was 100 and the “Plant response rating, Windgrass” value [6, 18] was 85. For the same compound, the “Galium plant response rating” value [7, 13] was 85, the “Plant response rating, Galium” value [7, 14] was 100 and the “Plant response rating, Galium” value [7, 15] was 100. The “Plant response rating (scale of 0 to 100), Galium” value ([7]; Preemergence, 31 g ai/ha) was 15, the “Plant response rating (scale of 0 to 100), Galium” value ([7]; Preemergence, 62 g ai/ha) was 40 and the “Plant response rating, Galium” value [7, 16] was 60. The “Plant response rating, Galium” value [7, 17] was 80, the “Plant response rating, Galium” value [7, 18] was 100 and the “Foxtail, Green plant response rating” value [8, 13] was 70. The “Plant response rating, Foxtail, Green” value [8, 14] was 80, the “Plant response rating, Foxtail, Green” value [8, 15] was 90 and the “Plant response rating (scale of 0 to 100), Foxtail, Green” value ([8]; Preemergence, 31 g ai/ha) was 10. The “Plant response rating (scale of 0 to 100), Foxtail, Green” value ([8]; Preemergence, 62 g ai/ha) was 55, the “Plant response rating, Foxtail, Green” value [8, 16] was 95 and the “Plant response rating, Foxtail, Green” value [8, 17] was 95. The “Plant response rating, Foxtail, Green” value [8, 18] was 75, the “Deadnettle plant response rating” value [9, 13] was 10 and the “Plant response rating, Deadnettle” value [9, 14] was 35. The “Plant response rating, Deadnettle” value [9, 15] was 60, the “Plant response rating (scale of 0 to 100), Deadnettle” value ([9]; Preemergence, 31 g ai/ha) was 25 and the “Plant response rating (scale of 0 to 100), Deadnettle” value ([9]; Preemergence, 62 g ai/ha) was 35. For the same compound, the “Plant response rating, Deadnettle” value [9, 16] was 65, the “Plant response rating, Deadnettle” value [9, 17] was 70 and the “Plant response rating, Deadnettle” value [9, 18] was 15. The “Kochia plant response rating” value (kochia (Kochia scoparia); [13]) was 85, the “Plant response rating, Kochia” value (kochia (Kochia scoparia); [14]) was 90 and the “Plant response rating, Kochia” value (kochia (Kochia scoparia); [15]) was 95. For the same compound, the “Plant response rating (scale of 0 to 100), Kochia” value (kochia (Kochia scoparia); Preemergence, 31 g ai/ha) was 0, the “Plant response rating (scale of 0 to 100), Kochia” value (kochia (Kochia scoparia); Preemergence, 62 g ai/ha) was 55 and the “Plant response rating, Kochia” value (kochia (Kochia scoparia); [16]) was 100. The “Plant response rating, Kochia” value (kochia (Kochia scoparia); [17]) was 100, the “Plant response rating, Kochia” value (kochia (Kochia scoparia); [18]) was 90 and the “Speedwell plant response rating” value [10, 13] was 70. The “Plant response rating, Speedwell” value [10, 14] was 75, the “Plant response rating, Speedwell” value [10, 15] was 80 and the “Plant response rating (scale of 0 to 100), Speedwell” value ([10]; Preemergence, 31 g ai/ha) was 80. For the same compound, the “Plant response rating (scale of 0 to 100), Speedwell” value ([10]; Preemergence, 62 g ai/ha) was 85, the “Plant response rating, Speedwell” value [10, 16] was 90 and the “Plant response rating, Speedwell” value [10, 17] was 100. For the same compound, the “Plant response rating, Speedwell” value [10, 18] was 75, the “Chickweed plant response rating” value [11, 13] was 85 and the “Plant response rating, Chickweed” value [11, 14] was 100. For the same compound, the “Plant response rating, Chickweed” value [11, 15] was 100, the “Plant response rating (scale of 0 to 100), Chickweed” value ([11]; Preemergence, 31 g ai/ha) was 100 and the “Plant response rating (scale of 0 to 100), Chickweed” value ([11]; Preemergence, 62 g ai/ha) was 100. For the same compound, the “Plant response rating, Chickweed” value [11, 16] was 100, the “Plant response rating, Chickweed” value [11, 17] was 100 and the “Plant response rating, Chickweed” value [11, 18] was 90. For the same compound, the “Blackgrass plant response rating” value [12, 13] was 65, the “Plant response rating, Blackgrass” value [12, 14] was 85 and the “Plant response rating, Blackgrass” value [12, 15] was 90. For the same compound, the “Plant response rating (scale of 0 to 100), Blackgrass” value ([12]; Preemergence, 31 g ai/ha) was 70, the “Plant response rating, Blackgrass” value [12, 19] was 75 and the “Plant response rating, Blackgrass” value [12, 16] was 80. For the same compound, the “Plant response rating, Blackgrass” value [12, 17] was 80 and the “Plant response rating, Blackgrass” value [12, 18] was 75.
